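Protocol summary: plate cells (96-well), add compound at 5 concentrations, incubate 48 h, interpolate endpoints linearly. GI50 = concentration required for 50% inhibition of growth. At the TGI there is no net growth.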
Test system: MDA-MB-468 breast
Assay: growth of human tumour cells (NCI), 48 h

C=CCOc1ccc2c(c1)CC[C@@H]1[C@@H]2CC[C@]2(C)C(=O)/C(=N/O)C[C@@H]12
GI50: 2180 nM | TGI: 10.6 µM

Cc1nc(N(C)C)nc(-c2cccc(-c3ccn(CCN(C)C)n3)c2)c1C
GI50: 12100 nM | TGI: > 20 µM

N[C@@H](Cc1ccc(N(CCCl)CCCl)cc1)C(=O)O
GI50: 3840 nM | TGI: 23.7 µM

CCOc1ccc(NC2=C(Cl)C(=O)c3nc(C)ccc3C2=O)cc1
GI50: 1490 nM | TGI: 2.92 µM

CC/C(=C(/c1ccc(Cl)cc1)c1ccc(OCCCN(C)C)cc1)c1ccc(OC)cc1
GI50: 1060 nM | TGI: 2.26 µM

COc1cc(-c2cc(C(=O)N3CCN(C(=O)c4ccccc4NCc4cccs4)CC3)nc3cc(-c4ccccc4)nn23)cc(OC)c1OC
GI50: 2710 nM | TGI: 14 µM

CCCCCCOc1ccc(/C=N/Nc2cc(C)nc3ccc(Br)cc23)cc1
GI50: 1700 nM | TGI: 3.22 µM

COC(=O)/C=C/c1cc(OC)c2c(c1)[C@@H](C(=O)OC)[C@H](c1ccc(OC)c(OC)c1)O2
GI50: 1710 nM | TGI: > 100 µM

Nc1ncnc2c1c(-c1ccc(Oc3ccccc3)cc1)nn2C[C@H]1SSC[C@H]1O
GI50: 211 nM | TGI: 0.627 µM

O=c1c(-c2nc3ccccc3[nH]2)cc2ccccc2n1Cc1cn(Cc2ccc(F)cc2)nn1
GI50: 93.1 nM | TGI: 2.78 µM

O=C1COCCN1c1ccc(NCc2cn(Cc3ccc(F)cc3)c3ccccc23)cc1
GI50: 23.9 nM | TGI: 0.0783 µM

O=C(Nc1ccc(-n2cc(-c3ccncc3)c(-c3ccc(Cl)c(O)c3)n2)cc1)c1ccc(Cl)c(C(F)(F)F)c1
GI50: 1840 nM | TGI: 5.68 µM

CCOC(=O)C1=CN(Cc2ccccc2)C2ON=C(c3ccc(Cl)cc3)C2C1 (stereo unspecified)
GI50: 15500 nM | TGI: > 100 µM

CCc1cc(Cc2cc(CC)cc(C(C)(C)C)c2O)c(O)c(C(C)(C)C)c1
GI50: 3540 nM | TGI: 13.2 µM

CCCCCCCCCCCC(=O)[O][Sn]([CH2]CCC)([CH2]CCC)[CH2]CCC
GI50: 28 nM | TGI: 0.0787 µM

COc1cc(Nc2nccc(-c3cnn4ncccc34)n2)cc(OC)c1
GI50: 64.3 nM | TGI: 0.217 µM

COc1ccc(/C=N/C2=C(C#N)C(c3ccccc3)c3ccc4ccccc4c3O2)cc1 (stereo unspecified)
GI50: 454 nM

Nc1c(C(=O)Nc2cccc3ccccc23)sc2nc3c(cc12)CCCCCC3
GI50: 675 nM | TGI: 11.6 µM

C=C(C=O)[C@@H]1CC=C(C=O)CC1
GI50: 2800 nM | TGI: > 100 µM

COc1cc(-c2nc3cc(Cl)c(Cl)cc3[nH]2)ccc1OCC(=O)N=Nc1c(O)[nH]c2ccccc12
GI50: 250 nM | TGI: 0.685 µM

CCOc1ccc(-n2cc(-c3ccc(N(C)C)cc3)[n+]3c2CCCCC3)cc1
GI50: 42 nM | TGI: 2.34 µM

COc1ccc(S(=O)(=O)Nc2c(/C=C\c3cc(OC)c(OC)c(OC)c3)ccc(OC)c2O)cc1OC
GI50: 75.5 nM | TGI: 0.441 µM

Nc1nc(-c2ccccc2Cl)cc(-c2ccc(Cl)cc2Cl)n1
GI50: 2180 nM | TGI: 8.66 µM

c1ccc(Oc2cnc3ccccc3n2)cc1
GI50: 46400 nM | TGI: > 100 µM

COc1cc(/C=C2\CCCC3=C2N=C2SC=NN2C3c2cc(OC)c(OC)c(OC)c2)cc(OC)c1OC (stereo unspecified)
GI50: 2330 nM | TGI: 7.52 µM

O=c1c(Br)ccc(Br)cc1Br
GI50: 830 nM | TGI: 2.62 µM

NC(CSC(c1ccccc1)(c1ccccc1)c1ccc(Br)cc1)C(=O)O (stereo unspecified)
GI50: 116 nM | TGI: > 31.6 µM

N=C(N)c1ccc(-c2ccc(-c3ccccc3)o2)o1
GI50: 1640 nM | TGI: 4.19 µM

Clc1ccc2c(NCCCNCc3ccc4c(c3)OCO4)ccnc2c1
GI50: 2040 nM | TGI: 5.13 µM

COc1cc(Cl)c(C)cc1NC(=O)c1cc2ccccc2cc1O
GI50: 2760 nM | TGI: 9.74 µM

OC(c1cc2c(Cl)cc(Cl)cc2c2cc(C(F)(F)F)ccc12)C1CCCCN1 (stereo unspecified)
GI50: 1710 nM | TGI: 3.22 µM

O=C1/C=C/[C@@H](O)[C@@H]2C[C@@H](O)C[C@H]2/C=C/CCCCO1
GI50: 167 nM

COc1ccc2c(c1)cn1c3ccc(OC)cc3[nH]c(=O)c21
GI50: 63.5 nM | TGI: 1.04 µM

Cn1cc(C2=C(c3cn(CCCN/C(N)=N\[N+](=O)[O-])c4ccccc34)C(=O)NC2=O)c2ccccc21
GI50: 2090 nM | TGI: 9.74 µM

Nc1c(S(=O)(=O)O)cc2c(c1Cl)C(=O)c1ccccc1C2=O
GI50: > 100000 nM | TGI: > 100 µM

COc1cccc(-c2nn(C)c3sc(C(=O)NCCN4CCN(c5ccccc5F)CC4)cc23)c1
GI50: 7810 nM | TGI: > 100 µM

CN(Cc1cccc(Cl)c1)c1ccc(CO)c(Cl)c1
GI50: 57 nM | TGI: 0.217 µM

COc1ccc(-c2nn(C(=O)c3cc(OC)c(OC)c(OC)c3)c3cc(N)ccc23)cc1
GI50: < 14.1 nM | TGI: 0.19 µM

O=C(/C=C/c1ccco1)c1cccc(Nc2nc(Nc3ccccc3)nc(Nc3ccccc3)n2)c1
GI50: 2800 nM | TGI: 28.9 µM
